{
  "source": "patent US20100197765A1",
  "about": "“METHOD FOR PROMOTING THE EXPRESSION OF P53, AND P53 EXPRESSION PROMOTER FOR USE IN THE METHOD” (THE UNIVERSITY OF TOKUSHIMA, priority 2007, published 2010)",
  "key": {"vegf IresRNA": {"system": "vegf IresRNA", "assay": "p53 mRNA in p53-deleted HCT116 cotransfected with p53 vector, vegf IresRNA vector and decoy or antisense LNA-DNA (Northern)", "format": "cell-based, human"}, "p53 mRNA [1]": {"system": "p53 mRNA", "assay": "degradation/silencing of exogenous p53 mRNA in H1299 cells (Northern)", "format": "cell-based, human", "settings": "H1299, cycloheximide 50 μg/ml, 16 hours", "description": "In the same manner as in Example A4, the p53 expression vectors and each type of the recombinant plasmid vectors, pVC and pVCmut5′, or empty vectors (mock) were cotransfected into H1299 cells (p53 null), and the cells were cultured for 12 hours. RNA was collected from each type of the transfection cells, the RNA was separated by a denatured agarose gel electrophoresis, and exogenous p53 mRNA and its degradation product were detected by the Northern blotting. FIG. 7A is a photograph showing exogenous p53 mRNA and its degradation product in each type of the cells. In FIG. 7A, the lane 1 “mock” indicates the result obtained regarding the cells transfected with the empty vectors, the lane 2 “VEGF mut5′” indicates the result obtained regarding the cells transfected with pVCmut5′, and the lane 3 “VEGF 5” indicates the result obtained regarding the cells transfected with pVC. The size (nt) of an RNA marker (Ambion, Inc.) was shown on the left of the photograph of blotting.\nFirst, the p53 expression vectors and each type of the recombinant plasmid vectors, pVC and pVCmut5′, were cotransfected into H1299 cells (p53 null), and the cells were cultured for 8 hours. […] With respect to the treated cells, the expression level of p53 mRNA was analyzed by the Northern blotting. […]"}, "p53 mRNA [2]": {"system": "p53 mRNA", "assay": "cell-free protein synthesis reaction after heteroduplex formation", "format": "biochemical, human", "settings": "cell-free protein synthesis with p53 mRNA/5′ UTR RNA heteroduplex, cycloheximide added", "description": "(5) Detection of p53 mRNA and its Degradation Product In the same manner as in the above-described item (3), mutant 5′ UTR RNA or 5′ UTR was incubated with p53 mRNA. As described above, mutant 5′ UTR RNA and p53 mRNA form a heteroduplex by incubation. Then, using the treated RNA samples, in the presence or absence of cycloheximide (final concentration of […]) or in the presence of purified ribosome prepared by a sucrose density-gradient centrifugation method, a cell-free protein synthesis reaction was performed. The cell-free protein synthesis was carried out by making reference to the research paper (Huez, I. et al. Mol. Cell. Biol. 18, 6178-6190 (1998)) or using Wako PURE system (trade name, Wako Chemical) following the specifications thereof.\nIn the same manner as in the above-described item (4), RNAs each were incubated in the combination shown in FIG. 8E, and cell-free protein synthesis was carried out. In this state, [^35S] methionine coexisted in a reaction solution of cell-free protein synthesis. Then, p53 protein synthesized in vitro was separated by SDS-PAGE using a polyacrylamide gel of 12%, and a dried gel was subjected to an autoradiography. FIG. 8E is an autoradiography showing synthesis of p53 protein in a reaction solution of cell-free protein in the presence of vegf 5′ UTR. […]"}, "[3]": {"system": "HCT116 cells (wild-type p53)", "assay": "survival rate of HCT116 cells transfected with decoy or antisense LNA-DNA after 5-FU", "format": "cell-based, human", "settings": "after 5-FU (40 μmol/L)", "description": "The wild-type and mutant-type p53 decoy LNA-DNA were transfected into HCT116 cells (wild-type p53). The cells transfected with the decoys were cultured in McCoy's 5A medium containing 10% fetal bovine serum and 100 μg/ml (100 units/ml) of streptomycin, and the relative value of the survival rate (%) was calculated according to “Apoptosis evaluation 2”. The relative value was obtained with the number of viable cells of 5-FU untreated cells being considered as 100%. In addition, the survival rate of HCT cells (p53) not transfected with the decoys also was calculated in the same manner as described above.\nThe wild-type and mutant-type vegf antisenses were transfected into HCT116 cells (wild-type p53). With respect to the cells transfected with the antisenses, the relative value of the survival rate (%) was calculated in the same manner as in Example C4. The relative value was obtained with the number of viable cells of 5-FU untreated cells being considered as 100%. In addition, the survival rate of HCT cells (wild-type p53) not transfected with the vegf antisenses was also calculated in the same manner as described above."}, "HCT116 cells [4]": {"system": "HCT116 cells", "assay": "apoptosis of siRNA-expressing HCT116 cells treated with low-concentration anticancer agents, with or without rVEGF", "format": "cell-based, human", "settings": "HCT116 not expressing siRNA (NT) and control siRNA cells, low concentrations, 60 hours", "description": "The recombinant vectors that express vegf siRNA#1 and #2 and the vectors that express control siRNA were transfected into HCT116 cells (parent cells, wild-type p53). As a control cell, an HCT116 cell not transfected with a recombinant vector that expresses siRNA was used. These four types of cells were treated in the presence or absence of various anticancer agents having the final concentrations as described below for 60 hours. As the anticancer agent, etoposide (20 μmol/L), doxorubicin (170 nmol/L), and 5-FU (40 μmol/L) were used. With respect to the treated cells, apoptosis (%) was quantified in the same manner as in Example A1.\nUTR RNA and function of VEGF protein. With the aim of clarifying an effect of blocking the function of vegf 5′ UTR RNA, recombinant VEGF protein (R&D systems, hereinafter referred to as “rVEGF”) was added to a culture supernatant of cells transfected with vegf siRNA in order to add VEGF protein that is decreased due to siRNA. […] Therefore, in Example A9, 1 ng/ml of rVEGF protein was added to the four types of cells. […] Then, these transfection cells were treated with anticancer agents in the same manner as described above."}, "p53-deleted cells HCT116": {"system": "p53-deleted cells HCT116", "assay": "apoptosis (TUNEL) in p53-deleted HCT116 cells with vegf siRNA and 5-FU", "format": "cell-based, human", "settings": "p53-deleted cells HCT116, treatment with 5-FU", "description": "Apoptotic cells were evaluated by a TUNEL staining method using in situ Cell Death Detection kit (Roche Diagnostic). […] The counting was performed with respect to at least 300 cells in one measurement.\nVarious types of cells were treated with 5-FU, which is an anticancer agent inducing apoptosis in a p53-dependent manner, and the sensitivity to apoptosis was analyzed. The vegf siRNA#1 vectors expressing siRNA#1, the vegf siRNA #2 vectors expressing siRNA #2, and the control siRNA vectors described above respectively were transfected into HCT 116 (parent cells) and p53-deleted cells HCT116. Then, the cells after 18 hours from the transfection was treated for 60 hours in the presence of […] of 5-FU (+) or in the absence of 5-FU (−). The proportion (%) of apoptosis positive cells in the thus-treated cells was calculated based on “Apoptotic evaluation 2” above (means±SD, n=4)."}, "HCT116 cells [5]": {"system": "HCT116 cells", "assay": "p53 mRNA, vegf IresRNA and vegf mRNA in HCT116 cells exposed to genotoxic stress (Northern)", "format": "cell-based, human", "description": "HCT116 cells (parent cells) were exposed to genotoxic stress that upregulates the expression of p53 mRNA. […] Also, HCT116 cells were exposed to UV-B for 1 minute. Then, after placing them under non-exposed conditions for a predetermined time (6, 12 hours), the expressions were examined in the same manner as in the above."}, "[6]": {"system": "noxa mRNA, puma mRNA, and p21 mRNA", "assay": "expression of mRNAs induced in p53 pathways in HepG2 cells (Northern)", "format": "cell-based, human", "settings": "control siRNA HepG2 cells, 5-FU 30 μmol/L, 16 hours", "description": "In the same manner, HepG2 cells transfected with each type of the vectors were treated for 16 hours in the presence of 5-FU (30 μmol/L) (+) or the absence of 5-FU (−). With respect to the treated cells, expression of noxa mRNA, puma mRNA, and p21 mRNA induced in p53 pathways was analyzed by the Northern blotting. […] In FIG. 1D, the first row from the top indicates expression of noxa mRNA, the second row indicates expression of puma mRNA, the third row indicates expression of p21 mRNA, and the fourth row indicates expression of gapdh mRNA. Definitions of the lanes in FIG. 1D are the same as those of FIG. 1C."}, "HepG2 cells": {"system": "HepG2 cells", "assay": "apoptosis (Apoptotic evaluation 1) of siRNA-expressing HepG2 cells treated with 5-FU", "format": "cell-based, human", "settings": "control siRNA-expressing HepG2 cells treated with 5-FU", "description": "Objective cells were treated with various anticancer agents, and then incubated with trypsin/EDTA to prepare cell suspensions. The cell suspensions were centrifuged and supernatants thereof were removed. Thereafter, the cell suspensions each were immobilized and stained with a solution of formaldehyde of 3.7%, Nonidet P40 of 0.5%, and 10 μg/mL of Hoechst33258 (Invitrogen) in PBS. […] The counting was performed with respect to at least 300 cells in one measurement.\nEach type of the recombinant vectors was transfected into HepG2 cells for 18 hours in the same manner as in the above-described item (1). Each type of the transfection cells was treated with an anticancer agent “5-FU” having a predetermined concentration (0, 10, 30 μmol/L) for 60 hours. Then, the apoptosis (%) of the treated cells was examined according to “Apoptosis evaluation 1”. FIG. 1B is a graph showing apoptosis (%) in each type of the cells treated with 5-FU having a predetermined concentration (means±SD, n=3)."}, "[7]": {"settings": "vegf antisense LNA-DNA cotransfected with vegf IresRNA and p53 expression vectors"}},
  "data": [
    {"compound": "mutant-type p53 decoy: LNA-DNA of the p53 decoy sequence introduced with mutation, SEQ ID NO: 94, 5′-cccGCcCACCcGGctgGTcca-3′ (DNA CCCGCCCACCCGGCTGGTCCA; LNA-DNA mixmer, LNA positions not given here)", "values": [
      {"measurement": "expression amount of p53 mRNA", "setting": "vegf IresRNA; p53 decoy LNA-DNA cotransfected with vegf IresRNA and p53 expression vectors", "result": "small"}
    ]},
    {"compound": "C[C@@H]1C[C@@H]([C@H](O)CC2CC(=O)NC(=O)C2)C(=O)[C@@H](C)C1", "note": "[cycloheximide]", "values": [
      {"measurement": "effect on silencing of p53 mRNA due to vegf 5′ UTR", "setting": "p53 mRNA [1]", "result": "marked inhibition of silencing"},
      {"measurement": "effect on partial degradation of p53 mRNA", "setting": "p53 mRNA [2]", "result": "completely blocked"}
    ]},
    {"compound": "wild-type p53 decoy: LNA-DNA corresponding to a sequence from base 462 to base 482 of p53 mRNA, SEQ ID NO: 93, 5′-ccccgcgtggcccctgcacca-3′ (DNA CCCCGCGTGGCCCCTGCACCA; LNA-DNA mixmer, LNA positions not given here)", "values": [
      {"measurement": "survival rate of cells", "setting": "[3]; p53 decoy, vs no decoy and mutant-type decoy", "result": "decreased"}
    ]},
    {"compound": "wild-type vegf antisense: antisense LNA-DNA complementary to bases 693 to 714 of vegf IresRNA, SEQ ID NO: 74, 5′-ccccgcgcggaccacggctcct-3′ (antisense CCCCGCGCGGACCACGGCTCCT; LNA-DNA chimera, LNA positions not given here)", "values": [
      {"measurement": "survival rate of cells", "setting": "[3]; vegf antisense, vs cells (none) not transfected", "result": "markedly decreased"},
      {"measurement": "expression amount of p53 mRNA", "setting": "vegf IresRNA; [7]", "result": "marked expression amount"}
    ]},
    {"compound": "O=c1[nH]cc(F)c(=O)[nH]1", "note": "[5-FU, 5-fluorouracil, reference compound]", "values": [
      {"measurement": "significant enhancement of apoptosis", "setting": "HCT116 cells [4]", "result": "not induced"},
      {"measurement": "proportion of apoptosis", "setting": "p53-deleted cells HCT116", "result": "increased slightly"},
      {"measurement": "vegf IresRNA and vegf mRNA expression", "setting": "HCT116 cells [5]; HCT116, 5-FU 80 μmol/L or MMC 6 μg/ml, 0, 6, 12 hours", "result": "increased markedly"},
      {"measurement": "expression of the p53 mRNA", "setting": "HCT116 cells [5]; HCT116, 5-FU 80 μmol/L, MMC 6 μg/ml or cisplatin 5 μg/ml, 0, 6, 12 hours", "result": "suppressed"},
      {"measurement": "expression of p21 mRNA", "setting": "[6]", "result": "slightly induced"},
      {"measurement": "proportion of apoptosis", "setting": "HepG2 cells", "result": "slightly increased"}
    ]},
    {"compound": "mutant-type vegf antisense: antisense LNA-DNA having the sequence introduced with mutation, SEQ ID NO: 95, 5′-cccGCcCGggTcGTcCgcAccA-3′ (antisense CCCGCCCGGGTCGTCCGCACCA; LNA-DNA mixmer, LNA positions not given here)", "values": [
      {"measurement": "expression amount of p53 mRNA", "setting": "vegf IresRNA; [7]", "result": "small"}
    ]},
    {"compound": "COc1cc([C@@H]2c3cc4c(cc3[C@@H](O[C@@H]3O[C@@H]5CO[C@@H](C)O[C@H]5[C@H](O)[C@H]3O)[C@H]3COC(=O)[C@H]23)OCO4)cc(OC)c1O", "note": "[etoposide, reference compound]", "values": [
      {"measurement": "significant enhancement of apoptosis", "setting": "HCT116 cells [4]", "result": "not induced"}
    ]},
    {"compound": "COc1cccc2c1C(=O)c1c(O)c3c(c(O)c1C2=O)C[C@@](O)(C(=O)CO)C[C@@H]3O[C@H]1C[C@H](N)[C@H](O)[C@H](C)O1", "note": "[doxorubicin, reference compound]", "values": [
      {"measurement": "significant enhancement of apoptosis", "setting": "HCT116 cells [4]", "result": "not induced"}
    ]}
  ]
}
